From patent US20220062218A1, “COMPOSITIONS AND METHODS FOR TREATING DIABETES” (ENZYCHEM LIFESCIENCES, priority 2019, published 2022) come the findings set out here.

“Also recorded” adds a separate entry of the source.

In test [1] the test system is Streptozotocin (STZ)-induced diabetes model. Briefly: Streptozotocin (STZ)-induced diabetes model in mice: blood glucose, serum insulin, body weight, pancreas histopathology. Type of test: in vivo. The procedure:
In order to confirm the efficacy of 1-palmitoyl-2-linoleoyl-3- acetyl-racglycerol (EC-18 or PLAG) in the treatment of diabetes disease, Streptozotocin (STZ)-induced diabetes model were used in the experiments.
Mice were divided into four groups (control group, STZ-only treatment group, PLAG-co-treatment group, and PLAG-post-treatment group). After a 16-h fast, the three treated groups except the control group were injected intraperitoneally with STZ (200 mg/kg BW) prepared fresh in citrate buffer, wherein BW means body weight. STZ-only treatment mice received no additional treatment.
On the same day, PLAG-co-treatment group mice began treatment with PLAG (250 mg/kg, p.o.) once daily for 3 consecutive days. The PLAG-post-treatment group received PLAG (250 mg/kg, p.o.) for 2 consecutive days beginning 1 day after STZ injection. As the PLAG, 1-palmitoyl-2-linoleoyl-3-acetyl-rac-glycerol represented by Formula 2 was used.
Blood was collected via the retro-orbital plexus, and blood glucose levels were monitored during the experiment. Blood glucose was measured using the Accu-Chek glucometer (Roche, Seoul, Republic of Korea). FIG. 1A is a chart measuring the blood glucose of the control group and the experimental groups on the first day.
All mice were sacrificed on day 4, last day of experiment (day 4), serum insulin was measured (FIG. 1B). Tissues of the pancreatic tissue of the control group and the experimental group were collected and fixed in 10% formalin for further analysis. During the experiment, the weight change of the control group and the experimental groups was measured (FIG. 1C).
Pancreas tissues were fixed in 10% formalin, embedded in paraffin, and sectioned at a 4 μm thickness. For immunohistochemistry, sections were deparaffinized and […] using xylene and a graded ethanol series Staining was performed using the Real EnVision Detection System Peroxidase-DAB kit (Dako, Glostrup, Denmark) following the manufacturer's instructions, and then observed under a light microscope (Olympus, Tokyo, Japan) (FIG. 1D, 400 magnification).

The test system of test [2] is INS-1 cells. Briefly: STZ-induced cell apoptosis in INS-1 cells, flow cytometry with annexin-V and 7-AAD. Type of test: cell-based, rat. The following applies: STZ-treated cells. The procedure:
The effect of PLAG on STZ-induced cell apoptosis was analyzed using flow cytometry using annexin-V and 7-AAD dye (FIGS. 2A and 2B). Cells were collected by trypsinization and washed with PBS. For cell apoptosis analyses, INS-1 cells were incubated with annexin V (BD Biosciences, Franklin Lakes, N.J., USA) for 10 min at room temperature, and stained with 7-AAD (BD Biosciences). Analysis was performed using a BD FACSVerse flow cytometer (BD Biosciences). The annexin-V and 7-AAD dyes are dyes that label apoptosis, one kind of cell death.
After treatment with PLAG and PLH(1-palmitoyl-2-linoleoyl-3-hydroxyl-rac-glycerol), apoptosis, intracellular ROS generation and glucose uptake were analyzed by flow cytometry (FIG. 7-B to 7-E). In addition, expression of GLUT2 in membrane fractions was analyzed by Western blotting (FIG.7-F). Data are presented as mean ±SD. ***P<0.001 vs. control, #P<0.05, ##P<0.005 vs. STZ. N.S.: No significance.
(§1) INS-1 rat insulinoma pancreas beta cells were cultured in RPMI-1640 medium (Welgene, Gyeongsangbuk-do, Republic of Korea) containing 10% fetal bovine serum (Tissue Culture Biologicals, Long Beach, Calif., USA), 50 μM β-mercaptoethanol, 100 units/mL penicillin, and 100 μg/mL streptomycin (Antibiotic-Antimycotic Solution, Welgene). The cells were grown in a humidified atmosphere with 5% CO2 at 37° C. Chemicals and reagents
(§2) Cells were collected by trypsinization and washed with ice-cold PBS. For cell apoptosis analyses, INS-1 cells were incubated with annexin V (BD Biosciences, Franklin Lakes, N.J., USA) for 10 min at room temperature, and stained with 7-AAD (BD Biosciences). For intracellular reactive oxygen species (ROS) analyses, cells were incubated with 2 μM of DCFH-DA (2′,7′-dichlorodihydrofluorescein diacetate, Invitrogen, Carlsbad, Calif., USA) for 30 min at 37° C. The analysis was performed using a BD FACS Verse flow cytometer (BD Biosciences).
In general terms: Flow cytometry measures light scatter and fluorescence of single cells or particles in a stream.

Test [3] deals with INS-1 cells. Kind of test: High glucose (HG)-induced intracellular ROS generation in INS-1 cells, flow cytometry with DCFH-DA. Type of test: cell-based, rat. The following applies: pre-treated with 50 or 100 μg/mL of PLAG for 1 h, then 30 mM HG for 48 h. The procedure:
Intracellular ROS generation also analyzed by flow cytometry using DCFH-DA dye. ROS generation was determined by analyzing changes in fluorescence intensity. INS-1 cells were pre-treated with 50 or 100 μg/mL of PLAG for 1 h, and then treated with 30 mM of HG for 48h. […] PLAG promotes GLUT2 endocytosis in HG-treated INS-1 cells (FIG. 10)
as §1, §2

In another test the test system is GLUT2. Briefly: Plasma membrane GLUT2 expression in high glucose-treated INS-1 cells, western blotting of membrane fractions. In kind it is cell-based, rat. The following applies: pre-treated with 100 pg/mL of PLAG for 1 h, then 30 mM HG for indicated times. The procedure: To investigate the effect of PLAG on GLUT2 plasma membrane localization, membrane proteins were fractionated and analyzed by western blotting. INS-1 cells were pre-treated with 100 pg/mL of PLAG for lh, and then treated with 30 mM of HG for indicating times.
For membrane protein fractionation, we performed using the MemPER™ Plus Kit (Thermo Scientific, Waltham, Mass., USA) following the manufacturer's instructions. Proteins were separated on 12% sodium dodecyl sulfate-polyacrylamide gels and transferred to polyvinylidene difluoride membranes (EMD Millipore, Darmstadt, Germany) The membranes were blocked and incubated with primary antibodies to GLUT2 (bs-0351r, Bioss, Woburn, Mass., USA) and N+-K+ ATPase (#3010S, Cell Signaling Technology, Danvers, Mass., USA). After three washes in PBST, membranes were incubated with HRP-conjugated secondary antibodies (Enzo Life Sciences, Farmingdale, N.Y., USA) for 1 h at room temperature. Protein bands were detected using ECL reagent (Thermo Scientific) and then visualized on films.

With `CCCCC/C=C\C/C=C\CCCCCCCC(=O)OC(COC(C)=O)COC(=O)CCCCCCCCCCCCCCC` (racemic) [PLAG, 1-palmitoyl-2-linoleoyl-3-acetyl-rac-glycerol], the “serum insulin (insulin secretion)” value in test [1] (day 4, STZ-only group compared with control and PLAG groups (250 mg/kg p.o.)) was “Insulin secretion of the STZ-only treatment group is significantly lower than the control and other experimental groups”. Besides, in test [1] (during the experiment, STZ-only group compared with control and PLAG groups (250 mg/kg p.o.)), the body weight change result was “STZ-only treatment group has a greater weight change than the control and other experimental groups”. Besides, the blood glucose result in test [1] (first day, PLAG-co-treatment group, 250 mg/kg p.o. once daily, STZ 200 mg/kg i.p., vs control group) is “did not have a significant increase in blood glucose”. Further, the apoptosis is roughly 50% in the test with INS-1 cells [2] (10 μg/mL of PLAG) and roughly 30% in the test on INS-1 cells [2] (100 μg/mL PLAG). The “decrease of cell apoptosis, PLAG vs PLH” value with INS-1 cells [2] (Example 8) is recorded as “more effective than PLH”. For the same compound, the “HG-induced intracellular ROS generation” value with INS-1 cells [3] is “dose-dependently decreased”. The “GLUT2 expression in plasma membrane (time course)” value with GLUT2 is “gradually decreased until 15 min, then recovered and returned to control levels at 60 min; also recorded: gradually decreased until 15min and then recovered and returned to control levels at 60 min”.
